Reference: patent US11713470B2, “Targeted gene therapies for pain and other neuro-related disorders” (University of Pittsburgh—Of the Commonwealth System of …, priority 2017, dated 2023)
“Also recorded” adds a separate entry of the source.

Key:
mice lacking PSAM-GlyR = experiment: Pain models (carrageenan, CFA, sural-SNI) in mice lacking PSAM-GlyR (ligand-alone control); type: in vivo, mouse; settings: 30 mg/kg i.p.
Text: (§1) Methods. Animals: All animals were kept on a standard 12:12 light/dark cycle in micro-isolator caging racks (Allentown Caging) with food and water provided ad libitum. Mouse strains obtained from Jackson Laboratories include C57Bl/6J (JAX #000664), Calr^Cre (JAX #010774) and CCK^Cre (JAX #012706). Adeno-associated viruses (AAV2/8) used in these experiments: hSyn-Flex-rev-PSAM^L141F-GlyR-IRES-eGFP (7^12 vg/ml) and hSyn-Flex-rev-PSAM^L141F,Y115F-GlyR-IRES-eGFP (1.7^13 vg/ml) were custom made by UNC Vector core based on plasmid material developed by Scott Sternson and provided by Addgene. The hSyn-Flex-rev-PSAM^L141F-GlyR-IRES-eGFP (7^12 vg/ml) was used in all experiments except FIG. 8 (e,f). For these experiments, hSyn-Flex-rev-PSAM^L141F,Y115F-GlyR-IRES-eGFP (1.7^13 vg/ml) was used. Methods including: intra-spinal virus injections, paw withdrawal threshold to von Frey filaments, to cotton swab, Hargreaves, pinprick and acute pain behaviors licking, guarding, flicking are all as previously described (Peirs, C. et al. Dorsal Horn Circuits for Persistent Mechanical Pain. Neuron 87, 797-812 (2015); Seal, R. P. et al. Injury-induced mechanical hypersensitivity requires C-low threshold mechanoreceptors. Nature 462, 651-655, (2009)); For paw withdrawal threshold to pressure: mice were lightly restrained by hand such that their rear legs were allowed to freely hang. Using a Pressure Application Measurement device (Ugo Basile) the hind paw was grasped between the experimenter's forefinger and thumb (with pressure transducer on the thumb), and force was slowly applied to the paw until the mouse struggled or flicked its limb (paw withdrawal threshold, PWT). The final force in grams was recorded. Each mouse was tested on the left and right paw for three trials with a ten-minute inter-trial interval between applications, and the three results averaged for each paw. Injury Models including incision, complete Freund's adjuvant, spared nerve injury tibial and sural models, carrageenan, methylglyoxal and multi-dose streptozotocin are as previously described (Peirs, C. et al. Dorsal Horn Circuits for Persistent Mechanical Pain. Neuron 87, 797-812 (2015); Seal, R. P. et al. Injury-induced mechanical hypersensitivity requires C-low threshold mechanoreceptors. Nature 462, 651-655, (2009); Decosterd, I. and Woolf, C. J. Spared nerve injury: an animal model of persistent peripheral neuropathic pain. Pain 87, 149-158 (2000); Bierhaus, A. et al. Methylglyoxal modification of Nav1.8 facilitates nociceptive neuron firing and causes hyperalgesia in diabetic neuropathy. Nat Med 18, 926-933 (2012); Cavanaugh, D. J. et al. Distinct subsets of unmyelinated primary sensory fibers mediate behavioral responses to noxious thermal and mechanical stimuli. Proc Natl Acad Sci USA 106, 9075-9080, (2009)). Chemogenetic Activation of PSAM-GlyR Receptor: Behavior thresholds were performed as described above in AAV8-hSyn-DIO-PSAM-GlyR-IRES-GFP injected mice. PSEM^89S at 30 mg/kg was injected intraperitoneally 15 minutes prior to testing. Immunohistochemistry was performed as previously described (Peirs, C. et al. Dorsal Horn Circuits for Persistent Mechanical Pain. Neuron 87, 797-812 (2015); Seal, R. P. et al. Injury-induced mechanical hypersensitivity requires C-low threshold mechanoreceptors. Nature 462, 651-655 (2009)). α-bungarotoxin conjugated to Alexa-647 (1:1000; ThermoFisher B35450), α-bungarotoxin conjugated to Alexa-488 (1:1000; ThermoFisher B13422). Imaging: Spinal cord sections were imaged with a confocal laser-scanning microscope (Nikon A1R) and Nikon Elements software using 405-, 488-, 561- and 640 nm excitation laser light. In order to suppress emission crosstalk, the microscope was configured to perform all scanning in sequential mode. Z-series were scanned at 20× magnification with an oil immersion lens and a z-step of 5.0 μm. Quantification and Statistical Analysis: all data are reported as mean±SEM. For acute behaviors, a two-tailed Student's t-test was used. […]

[1] = biological target: T1, PSAM-GlyR in CCK^+ dorsal horn neurons (Homo sapiens, UniProt P23415+P36544, L141F); type: in vivo, mouse; settings: CCK^Cre mice with PSAM-GlyR
T1 construct: plasmid from Addgene (Sternson); host or cells: mouse dorsal horn neurons transduced with Cre-dependent AAV2/8 (Tlx3^Cre, CCK^Cre or Calr^Cre mice)
T1 sequence (P36544+P23415 fused P36544:L141F): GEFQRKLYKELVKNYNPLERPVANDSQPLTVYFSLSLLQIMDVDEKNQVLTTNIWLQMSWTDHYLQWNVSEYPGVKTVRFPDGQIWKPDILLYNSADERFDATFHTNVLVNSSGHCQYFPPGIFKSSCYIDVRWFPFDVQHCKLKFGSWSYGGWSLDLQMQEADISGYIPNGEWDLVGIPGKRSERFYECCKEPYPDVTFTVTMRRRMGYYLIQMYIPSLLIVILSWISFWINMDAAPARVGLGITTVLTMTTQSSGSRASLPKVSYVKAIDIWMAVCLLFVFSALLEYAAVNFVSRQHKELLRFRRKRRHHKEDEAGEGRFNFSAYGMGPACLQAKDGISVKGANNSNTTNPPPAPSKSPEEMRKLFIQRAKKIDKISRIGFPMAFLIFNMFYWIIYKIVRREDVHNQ
Text: as §1

[2] = biological target: T2, PSAM-GlyR in calretinin neurons in the dorsal horn lamina II (Homo sapiens, UniProt P23415+P36544, L141F); type: in vivo, mouse; settings: Calr^Cre mice with PSAM-GlyR, 30 mg/kg i.p.
T2 construct: plasmid from Addgene (Sternson); host or cells: mouse dorsal horn neurons transduced with Cre-dependent AAV2/8 (Tlx3^Cre, CCK^Cre or Calr^Cre mice)
T2 sequence (P36544+P23415 fused P36544:L141F): as above
Text: as §1

PSAM-GlyR = settings: Magnus et al. 2011; cited from earlier work

SMILES: COc1ccc(OC)c(C(=O)NC2CN3CCC2CC3)c1 (stereo not shown) [PSEM^89S]
- dynamic allodynia induced by the sural-SNI model (mice lacking PSAM-GlyR): not altered
- punctate allodynia induced by the sural-SNI model (mice lacking PSAM-GlyR): not altered
- dynamic allodynia induced by CFA (mice lacking PSAM-GlyR; p>0.999): not altered; also recorded: no effect
- heat hypersensitivity, carrageenan pain model (mice lacking PSAM-GlyR; p>0.999): not altered; also recorded: no effect
- mechanical allodynia, carrageenan pain model (mice lacking PSAM-GlyR; p>0.999): not altered; also recorded: no effect
- punctate allodynia induced by CFA (mice lacking PSAM-GlyR; p>0.999): not altered; also recorded: no effect
- performance on the rotarod [1]: not altered
- baseline von Frey threshold ([1]; 30 mg/kg i.p., p=0.2192): no effect
- baseline pinprick ([1]; p=0.5983): no effect
- baseline response to cotton swab ([1]; p=0.7293): no effect
- baseline pressure with calibrated calipers ([1]; p=0.7450): no effect
- baseline Hargreaves latencies ([1]; p=0.9746): unchanged
- baseline ipsilateral von Frey threshold ([2]; p=0.3988): no effect
- baseline Hargreaves latencies ([2]; p=0.6125): unchanged
- baseline pinprick ([2]; p=0.7689): no effect
- baseline response to cotton swab ([2]; p=0.7963): no effect
- baseline pressure with calibrated calipers ([2]; p=0.8350): no effect
- baseline sticky tape ([2]; p=0.9346): no effect
- binding to the mutated receptor binding domain (PSAM-GlyR): high affinity
